The results in this text go back to patent US6710168B1, “Glycopeptide antibiotics, combinatorial libraries of glycopeptide antibiotics and methods of producing same” (The Trustees of the University of Princeton, priority 1999, dated 2004).

What all share (type): cell-based
Test [1] concerns Bacillus cereus (ATCC 11778). Nature of the test: MIC susceptibility test, microdilution with MTT readout. As to conditions: Bacillus cereus, ATCC11778, read-out: MIC BC. The gist of the method:
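Bacillus cereus ATCC® 11778 susceptibility was measured by broth microdilution in 96-well microplates using Cation Adjusted Mueller-Hinton broth. Samples were diluted two-fold from 5 μg/mL over 12 steps. Each well combined 100 μL of cell suspension (10^6 CFU/mL) with 100 μL of antibiotic solution and was incubated at 37° C. for 24 h. Then 50 μL of MTT (1 mg/mL) was added for 30 min, and MIC (μg/mL) was read as the lowest concentration inhibiting growth.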
(In general: Dilution methods test growth across graded concentrations, often in twofold steps.)

Test [2] relates to Enterococcus faecalis (ATCC 29212). The test is described as above. As to conditions: Enterococcus faecalis ATCC29212; read-out: MIC EF. The gist of the method:
(§1)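 Broth microdilution in cation-adjusted Mueller-Hinton broth, 12-step two-fold series from 5 μg/mL to […], mixed 1:1 with 10^6 CFU/mL cell suspension and incubated 24 h at 37 °C. MTT (1 mg/mL solution) is then added for 30 min (S. aureus, MRSA) or 2 h (E. faecalis strains). MIC = lowest concentration inhibiting growth.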

For test [3], the system named is Methicillin resistant Staphylococcus aureus (ATCC 33591). The test is described as above. As to conditions: ATCC 3359 / ATCC 33591 / MRSA; Staphylococcus aureus ATCC3359, Methicillin resistance; read-out: MIC MRSA. A digest of the protocol: as §1
Test [4] deals with Staphylococcus aureus (ATCC 29213). The description is as above. As to conditions: Staphylococcus aureus ATCC29213; read-out: MIC SA. A digest of the protocol: as §1
Test [5] deals with gentamicin, streptmycin, vancomycin resistant Enterococcus faecalis (ATCC 51299). The test is described as follows: microbe, parasite or virus in culture. The settings on record: Enterococcus faecalis, ATCC51299, read-out: MIC VREF. A digest of the protocol: as §1
For test [6], the system named is Enterococcus faecium CL5137, VanA. The test is described as follows: MIC susceptibility test. As to conditions: Enterococcus faecium CL5137, VanA; read-out: MIC CL5137.
In test [7] the test system is Enterococcus faecalis CL5244, VanB. Nature of the test: MIC susceptibility test. The settings on record: Enterococcus faecalis CL5244, VanB; read-out: MIC CL5244. A digest of the protocol: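 MTT-based broth microdilution in cation-adjusted Mueller-Hinton broth; two-fold 12-step dilutions […], inoculum 10^6 CFU/mL, 37° C for 24 h.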

Values after ≈ are worked out from the molar mass of the structure shown. Where only a bound is given, the exact number is not on record here.

Take `CN[C@@H](CC(C)C)C(=O)N[C@H]1C(=O)N[C@@H](CC(N)=O)C(=O)N[C@H]2C(=O)NC3C(=O)N[C@H](C(=O)N[C@@H](C(=O)O)c4cc(O)cc(O)c4-c4cc3ccc4O)[C@H](O)c3ccc(c(Cl)c3)Oc3cc2cc(c3OC2OC(CN=[N+]=[N-])C(O)C(O)C2OC2CC(C)(NCc3ccc(-c4ccc(Cl)cc4)cc3)C(O)C(C)O2)Oc2ccc(cc2Cl)[C@H]1O` (some centres unmarked) [LXXIV, N-4-(4-Chlorophenyl)benzylvancosamine-glucose-C6-azide Vancomycin]: the MIC in test [1] turned out to be 0.32 µg/mL (≈ 0.191 µM); in test [2], 0.16 µg/mL (≈ 0.0955 µM); in test [3] it was 0.48 µg/mL (≈ 0.287 µM); in test [4], 1 µg/mL (≈ 0.597 µM); in test [5], 0.16 µg/mL (≈ 0.0955 µM); in test [6], 13 µg/mL (≈ 7.76 µM). Also, the MIC in test [7] was 0.3 µg/mL (≈ 0.179 µM).

Turning to `CCCCCCCCCCNC1(C)CC(OC2C(Oc3c4cc5cc3Oc3ccc(cc3Cl)[C@@H](O)[C@@H](NC(=O)[C@H](CC(C)C)NC)C(=O)N[C@@H](CC(N)=O)C(=O)N[C@H]5C(=O)NC3C(=O)N[C@H](C(=O)N[C@@H](C(=O)O)c5cc(O)cc(O)c5-c5cc3ccc5O)[C@H](O)c3ccc(c(Cl)c3)O4)OC(CSc3nnc(C)c(O)n3)C(O)C2O)OC(C)C1O` (some centres unmarked) [LXXIX, N-Decylvancosamine-glucose-C6-2-thio-6-azathymine Vancomycin], the MIC was 0.63 µg/mL (≈ 0.367 µM) in test [1]; 0.32 µg/mL (≈ 0.187 µM) in test [2]; 1.3 µg/mL (≈ 0.758 µM) in test [3]; 2.5 µg/mL (≈ 1.46 µM) in test [4]; 0.63 µg/mL (≈ 0.367 µM) in test [5]; 25 µg/mL (≈ 14.6 µM) in test [6]. In test [7], the MIC stood at 0.6 µg/mL (≈ 0.35 µM).

Regarding `CN[C@@H](CC(C)C)C(=O)N[C@H]1C(=O)N[C@@H](CC(N)=O)C(=O)N[C@H]2C(=O)NC3C(=O)N[C@H](C(=O)N[C@@H](C(=O)O)c4cc(O)cc(O)c4-c4cc3ccc4O)[C@H](O)c3ccc(c(Cl)c3)Oc3cc2cc(c3OC2OC(CN)C(O)C(O)C2OC2CC(C)(NCc3ccc(-c4ccc(Cl)cc4)cc3)C(O)C(C)O2)Oc2ccc(cc2Cl)[C@H]1O` (some centres unmarked) [LXXV, N-4-(4-Chlorophenyl)benzylvancosamine-glucose-C6-amine Vancomycin], the MIC in test [1] was 0.16 µg/mL (≈ 0.097 µM); in test [2], no more than 0.03 µg/mL; in test [3], no more than 0.03 µg/mL; in test [4] it was no more than 0.03 µg/mL; in test [5], 0.63 µg/mL (≈ 0.382 µM); in test [6] it was 2 µg/mL (≈ 1.21 µM). Also, the MIC in test [7] was no more than 0.03 µg/mL.

Turning to `CN[C@@H](CC(C)C)C(=O)N[C@H]1C(=O)N[C@@H](CC(N)=O)C(=O)N[C@H]2C(=O)NC3C(=O)N[C@H](C(=O)N[C@@H](C(=O)O)c4cc(O)cc(O)c4-c4cc3ccc4O)[C@H](O)c3ccc(c(Cl)c3)Oc3cc2cc(c3OC2OC(CSc3nnc(N)s3)C(O)C(O)C2OC2CC(C)(N)C(O)C(C)O2)Oc2ccc(cc2Cl)[C@H]1O` (some centres unmarked) [LXXVI, Glucose-C6-2-thio-5-amino-1,3,4-thiadiazole Vancomycin], the MIC was 0.63 µg/mL (≈ 0.403 µM) in test [1]; 1.3 µg/mL (≈ 0.831 µM) in test [2]; 0.63 µg/mL (≈ 0.403 µM) in test [3]; 0.63 µg/mL (≈ 0.403 µM) in test [4]; greater than 5 µg/mL in test [5]; greater than 50 µg/mL in test [6]. Also, in test [7], the MIC was found to be 19 µg/mL (≈ 12.1 µM).

In the case of `CN[C@@H](CC(C)C)C(=O)N[C@H]1C(=O)N[C@@H](CC(N)=O)C(=O)N[C@H]2C(=O)NC3C(=O)N[C@H](C(=O)N[C@@H](C(=O)O)c4cc(O)cc(O)c4-c4cc3ccc4O)[C@H](O)c3ccc(c(Cl)c3)Oc3cc2cc(c3OC2OC(CSc3nnc(NN)n3N)C(O)C(O)C2OC2CC(C)(N)C(O)C(C)O2)Oc2ccc(cc2Cl)[C@H]1O` (some centres unmarked) [LXXVII, Glucose-C6-5-thio-4-amino-3-hydrazino-1,2,4-triazole Vancomycin], the MIC in test [1] stood at 0.63 µg/mL (≈ 0.399 µM); in test [2], 0.63 µg/mL (≈ 0.399 µM); in test [3], 1.3 µg/mL (≈ 0.824 µM); in test [4], 1.3 µg/mL (≈ 0.824 µM); in test [5], 1.3 µg/mL (≈ 0.824 µM); in test [6], 63 µg/mL (≈ 39.9 µM). Besides, the MIC in test [7] came to 3.2 µg/mL (≈ 2.03 µM).
